Reference: ChEMBL document CHEMBL1201862, “PubChem BioAssay data set” (2004)
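Briefly, cells in 96-well plates were exposed to five compound concentrations for 48 h, and endpoints were estimated by linear interpolation. Abbreviation: GI50, concentration required for 50% inhibition of growth.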 The source made the active and inactive calls. Cut-off read from the data, not from the text of the source: active = GI50 up to about 1.1 µM and inactive = higher.

Legend:
Test in all cases: NCI-60 cell line screen, 48 h
OVCAR-5 = tested on: OVCAR-5
NCI-H226 = tested on: NCI-H226
T47D = tested on: T47D
COLO 205 = tested on: COLO 205
U-251 = tested on: U-251
Hs-578T = tested on: Hs-578T
MCF7 = tested on: MCF7
EKVX = tested on: EKVX
SNB-75 = tested on: SNB-75
SNB-19 = tested on: SNB-19
MOLT-4 = tested on: MOLT-4
ACHN = tested on: ACHN
SF-268 = tested on: SF-268
PC-3 = tested on: PC-3
A549 = tested on: A549
MDA-MB-231 = tested on: MDA-MB-231
SR = tested on: SR
HT-29 = tested on: HT-29
NCI-H23 = tested on: NCI-H23

Measured: GI50

COc1ccc(/C=C/c2ccnc3ccccc23)c(OC)c1
inactive: OVCAR-5 > 10 µM | NCI-H226 4.51 µM | T47D > 10 µM | COLO 205 4.34 µM | U-251 9.02 µM | Hs-578T 5.98 µM | MCF7 3.07 µM | EKVX 5.19 µM | SNB-75 4.23 µM | SNB-19 > 10 µM | MOLT-4 4.54 µM | ACHN 9.75 µM | SF-268 > 10 µM | PC-3 8.38 µM | A549 > 10 µM | MDA-MB-231 4.17 µM

N=C(N)N/N=C/c1c(-c2ccc(N)cc2)nc2sccn12
inactive: OVCAR-5 21.4 µM | NCI-H226 > 100 µM | T47D 21.1 µM | COLO 205 23.4 µM | U-251 25.4 µM | Hs-578T 31.3 µM | SR 33.7 µM | MCF7 31.6 µM | EKVX 24.7 µM | SNB-19 23.2 µM | MOLT-4 25.4 µM | ACHN 26.9 µM | SF-268 34.7 µM | HT-29 22.7 µM | NCI-H23 28.1 µM | PC-3 22.5 µM | A549 21.2 µM | MDA-MB-231 21 µM

CNC(=O)CCCNC(=O)CCCC(=O)N(C)C
inactive: OVCAR-5 > 100 µM | NCI-H226 > 100 µM | T47D > 100 µM | COLO 205 > 100 µM | U-251 > 100 µM | Hs-578T > 100 µM | MCF7 > 100 µM | EKVX > 100 µM | SNB-75 > 100 µM | SNB-19 > 100 µM | MOLT-4 > 100 µM | ACHN > 100 µM | SF-268 > 100 µM | HT-29 > 100 µM | NCI-H23 > 100 µM | PC-3 > 100 µM | A549 > 100 µM | MDA-MB-231 > 100 µM

CC(C)CC1C(=O)NCCC(NC(=O)C(Cc2ccc(OC(C)(C)C)cc2)NC(=O)OC(C)(C)C)C(=O)NC(Cc2ccccc2)C(=O)NC(Cc2ccccc2)NC1=O (configuration not stated)
inactive: OVCAR-5 6.25 µM | NCI-H226 5.06 µM | T47D 3.69 µM | COLO 205 3.32 µM | U-251 12.8 µM | Hs-578T 13.4 µM | SR 13.2 µM | MCF7 17 µM | EKVX 4.89 µM | SNB-19 14.4 µM | MOLT-4 1.51 µM | ACHN 7.89 µM | SF-268 4.51 µM | HT-29 3.67 µM | NCI-H23 13.3 µM | PC-3 14.5 µM | MDA-MB-231 4.9 µM

CC(=O)OC/C=C(\C)CCC(Br)C(C)(C)Br (configuration not stated)
inactive: OVCAR-5 > 10 µM | NCI-H226 > 10 µM | T47D > 10 µM | COLO 205 > 10 µM | U-251 > 10 µM | Hs-578T > 10 µM | MCF7 > 10 µM | EKVX > 10 µM | SNB-75 > 10 µM | SNB-19 > 10 µM | MOLT-4 > 10 µM | ACHN > 10 µM | SF-268 > 10 µM | HT-29 > 10 µM | NCI-H23 > 10 µM | PC-3 > 10 µM | A549 > 10 µM | MDA-MB-231 > 10 µM

O=C(O)C#Cc1ccc([N+](=O)[O-])cc1
inactive: OVCAR-5 > 100 µM | NCI-H226 > 100 µM | T47D > 100 µM | COLO 205 > 100 µM | U-251 > 100 µM | Hs-578T > 100 µM | SR > 100 µM | MCF7 > 100 µM | EKVX > 100 µM | SNB-19 > 100 µM | MOLT-4 > 100 µM | ACHN > 100 µM | SF-268 > 100 µM | HT-29 > 100 µM | NCI-H23 > 100 µM | PC-3 > 100 µM | A549 > 100 µM | MDA-MB-231 > 100 µM

CCOC(=O)NC(Nc1ccc(C)cc1)(C(F)(F)F)C(F)(F)F
inactive: OVCAR-5 > 100 µM | NCI-H226 > 100 µM | T47D > 100 µM | COLO 205 > 100 µM | U-251 > 100 µM | Hs-578T > 100 µM | MCF7 > 100 µM | SNB-75 > 100 µM | SNB-19 > 100 µM | MOLT-4 > 100 µM | ACHN > 100 µM | SF-268 > 100 µM | HT-29 > 100 µM | NCI-H23 > 100 µM | PC-3 > 100 µM | A549 > 100 µM | MDA-MB-231 > 100 µM

Cc1c(C#N)c(N)[nH]c(=S)c1C#N
inactive: OVCAR-5 > 100 µM | NCI-H226 > 100 µM | T47D > 100 µM | U-251 > 100 µM | Hs-578T > 100 µM | SR > 100 µM | MCF7 > 100 µM | EKVX > 100 µM | SNB-75 > 100 µM | SNB-19 > 100 µM | MOLT-4 > 100 µM | ACHN > 100 µM | SF-268 > 100 µM | HT-29 > 100 µM | NCI-H23 > 100 µM | PC-3 > 100 µM | A549 > 100 µM | MDA-MB-231 > 100 µM

O=S(=O)(O)c1ccc(/N=N/c2ccc(/N=N/c3c(O)ccc4ccc(S(=O)(=O)O)cc34)cc2)cc1
inactive: OVCAR-5 > 100 µM | NCI-H226 > 100 µM | T47D > 100 µM | COLO 205 > 100 µM | U-251 > 100 µM | Hs-578T > 100 µM | SR > 100 µM | MCF7 > 100 µM | EKVX > 100 µM | SNB-19 > 100 µM | MOLT-4 > 100 µM | ACHN > 100 µM | SF-268 > 100 µM | HT-29 > 100 µM | NCI-H23 > 100 µM | PC-3 > 100 µM | A549 > 100 µM | MDA-MB-231 > 100 µM

O=C(O)c1ccc(/C=N/N=C2c3ccccc3-c3ccccc32)cc1
inactive: OVCAR-5 50.2 µM | NCI-H226 22.4 µM | T47D 64 µM | COLO 205 57.8 µM | U-251 37.4 µM | Hs-578T 13.7 µM | SR 30.4 µM | MCF7 33.2 µM | EKVX > 100 µM | SNB-19 48 µM | MOLT-4 38.6 µM | ACHN 48.3 µM | SF-268 23.6 µM | HT-29 54.3 µM | NCI-H23 53.8 µM | PC-3 35 µM | A549 74 µM | MDA-MB-231 > 100 µM

CCOC(=O)CCC(NC(=O)c1ccc(Oc2nc3c(N)cc(C(F)(F)F)cc3nc2-c2ccccc2)cc1)C(=O)OCC (configuration not stated)
inactive: NCI-H226 2.76 µM | T47D 39.6 µM | COLO 205 > 100 µM | U-251 32.6 µM | Hs-578T 11.7 µM | SR 9.95 µM | MCF7 37.1 µM | EKVX 47.1 µM | SNB-75 5.05 µM | SNB-19 30.5 µM | MOLT-4 > 100 µM | ACHN 8.24 µM | SF-268 13.8 µM | HT-29 2.43 µM | NCI-H23 21.3 µM | PC-3 8.32 µM | A549 7.78 µM | MDA-MB-231 19 µM

Cn1c(N2CCCC2)c(C=O)c(=O)n(C)c1=O
inactive: OVCAR-5 > 100 µM | NCI-H226 51.8 µM | T47D > 100 µM | COLO 205 > 100 µM | U-251 > 100 µM | Hs-578T 91.6 µM | MCF7 > 100 µM | EKVX > 100 µM | SNB-75 14.1 µM | SNB-19 > 100 µM | MOLT-4 > 100 µM | ACHN > 100 µM | SF-268 96.8 µM | HT-29 > 100 µM | NCI-H23 > 100 µM | PC-3 > 100 µM | A549 > 100 µM | MDA-MB-231 > 100 µM

NNC(=O)CCCCCCCC(=O)O
inactive: OVCAR-5 > 100 µM | NCI-H226 > 100 µM | T47D > 100 µM | COLO 205 > 100 µM | U-251 > 100 µM | Hs-578T > 100 µM | SR > 100 µM | MCF7 > 100 µM | EKVX > 100 µM | SNB-75 > 100 µM | SNB-19 > 100 µM | MOLT-4 > 100 µM | ACHN > 100 µM | HT-29 > 100 µM | NCI-H23 > 100 µM | PC-3 > 100 µM | A549 > 100 µM | MDA-MB-231 > 100 µM

Cc1ccccc1S(=O)(=O)OC1NS(=O)(=O)c2ccccc21 (configuration not stated)
inactive: OVCAR-5 > 100 µM | T47D > 100 µM | COLO 205 > 100 µM | U-251 > 100 µM | Hs-578T > 100 µM | SR > 100 µM | MCF7 > 100 µM | EKVX > 100 µM | SNB-75 > 100 µM | SNB-19 > 100 µM | MOLT-4 > 100 µM | ACHN > 100 µM | SF-268 > 100 µM | HT-29 > 100 µM | NCI-H23 > 100 µM | PC-3 > 100 µM | A549 > 100 µM | MDA-MB-231 > 100 µM

Nc1ccc2c(c1)S(=O)(=O)c1cc(N)ccc1-2
inactive: OVCAR-5 > 100 µM | NCI-H226 > 100 µM | T47D > 100 µM | COLO 205 > 100 µM | U-251 > 100 µM | Hs-578T > 100 µM | MCF7 > 100 µM | EKVX > 100 µM | SNB-19 > 100 µM | MOLT-4 > 100 µM | ACHN > 100 µM | SF-268 > 100 µM | HT-29 > 100 µM | NCI-H23 > 100 µM | PC-3 > 100 µM | A549 > 100 µM | MDA-MB-231 > 100 µM

Cn1c(=O)c2c(ncn2CCCCOc2ccc3c(c2)[n+]([O-])nc(N)[n+]3[O-])n(C)c1=O
inactive: NCI-H226 19.4 µM | T47D 2.38 µM | COLO 205 17 µM | U-251 18.3 µM | Hs-578T 22.9 µM | SR 49.2 µM | MCF7 11.9 µM | EKVX 28.7 µM | SNB-75 27.9 µM | SNB-19 31.1 µM | MOLT-4 25.4 µM | SF-268 32.9 µM | HT-29 43.2 µM | NCI-H23 12.4 µM | PC-3 21.3 µM | A549 65.6 µM | MDA-MB-231 30.5 µM
